Legend:
[1] = tested on: human HTT mRNA, SNP rs362331 T allele, GM09197 fibroblasts; assay: Screening of HD molecules in GM09197 fibroblasts, allele-specific HTT mRNA by RT-PCR, T allele; assay type: cell-based; conditions: for Gm09197 Emin 48 hr T Allele (%): Emin = lowest % HTT observed within compound concentration 0.5 nM to 1000 nM; for IC50: Homo sapiens, Fibroblast, 48-hour incubation, T allele HTT mRNA normalized to GAPDH, relative to vehicle
Experimental: (§1) Molecular Biology Toolkit: • qPCR primer probe sets: • RNA input normalization was assessed utilizing human glyceraldehyde 3-phosphate dehydrogenase (hGAPDH) TaqMan assay (ThermoFisher cat #4351370) or Human Cyclophillin ([…]) TaqMan assay (ThermoFisher cat #4351372) • Total HTT detection was assessed utilizing human Htt TaqMan assay (ThermoFisher cat #4331182) • Allele-specific detection of human HTT expression in HD cells containing the SNP rs362331C/T (Exon 50): for each assay, allele-specific probes to detect the SNP variant contained locked nucleic acid bases to improve allele discrimination, as compared to unmodified DNA probes.
(§2) • qPCR was performed using Agpath ID one-step reverse transcriptase polymerase chain reaction (RT-PCR) reagent
(§3) Screening of HD molecules methods: GM09197 and/or GM04022 fibroblasts were cultured in T175 flasks incubated at 37° C. and 5% CO2. Once confluency was reached, the media was removed, the cells were washed with 1×PBS, and cells were dissociated using TrypLE™ Express Enzyme. Media was added to the enzyme and collected into a 15-mL conical tube and centrifuged at 500×g for 5 minutes to pellet the cells. Media and enzyme were aspirated using a serological pipette. Cells were resuspended in fresh media and counted using a Countess 3 Automated Cell Counter. Cells were plated at a density of 15,000 cells/well in a tissue culture-treated polystyrene 96-well dish and incubated at 37° C. and 5% CO2 overnight. The next day, media was removed using an 8-channel aspirator. 200 μL media/well are added back into the plate. The molecules are formulated to 1 mM and are dispensed using a Multidrop™ Pico 8 Digital Dispenser. After a 48-hour incubation with compounds, media was removed from plates, cells were washed with 1×PBS, and cells were lysed in 40 μL per well guanidinium thiocyanate buffer. RNA was isolated and purified in […] glass fiber column plates using chaotropic salts. Human mtHTT, wtHTT, and GAPDH mRNA were measured via RT-PCR using the ThermoFisher QuantStudio™ 7 Flex System in 384-well format. Results of HTT levels were normalized to GAPDH mRNA levels. Normalized HTT mRNA levels were expressed relative to vehicle-treated samples to assess fold change after molecule treatment.
(§4) Emin for each compound is the lowest % HTT concentration observed within a compound concentration of 0.5 nM to 1000 nM.

[2] = tested on: human HTT mRNA, SNP rs362331 C allele, GM09197 fibroblasts; assay: Screening of HD molecules in GM09197 fibroblasts, allele-specific HTT mRNA by RT-PCR, C allele; assay type: cell-based; conditions: for GM 09197 E min 48 Hr C Allele (%): Emin = lowest % HTT observed within compound concentration 0.5 nM to 1000 nM; for IC50: Homo sapiens, Fibroblast, 48-hour incubation, C allele HTT mRNA normalized to GAPDH, relative to vehicle
Experimental: as §1, §2, §3, §4

Row | SMILES | Gm09197 Emin 48 hr T Allele (%) [1] | IC50 [1] | GM 09197 E min 48 Hr C Allele (%) [2] | IC50 [2]
1 | Cc1sc2c(c1C)C(c1ccc(Cl)cc1)=N[C@@H](CC(=O)Nc1ccc(OCCOCCOCCOCCOCCOCCOCCOCCOCCNC(=O)CCNC(=O)c3nc(NC(=O)c4cc(NC(=O)CCNC(=O)c5nc(NC(=O)CCCNC(=O)c6cc(NC(=O)c7nc(NC(=O)CCNC(=O)c8cc(NC(=O)c9nccn9C)cn8C)cn7C)cn6C)cn5C)cn4C)cn3C)cc1)c1nnc(C)n1-2 [Compound A-1] | C (C<80%) | 114 nM | A (A>90%) | –
2 | Cc1cc(F)cc(C)c1Oc1ccc(C(C)(C)O)cc1-c1cn(C)c(=O)c2[nH]c(C(=O)Nc3ccc(OCCOCCOCCOCCOCCOCCOCCOCCOCCNC(=O)CCNC(=O)c4nc(NC(=O)c5cc(NC(=O)CCNC(=O)c6nc(NC(=O)CCCNC(=O)c7cc(NC(=O)c8nc(NC(=O)CCNC(=O)c9cc(NC(=O)c%10nccn%10C)cn9C)cn8C)cn7C)cn6C)cn5C)cn4C)cc3)cc12 [Compound A-7] | A (A>90%) | > 1000 nM | A (A>90%) | –
3 | CCS(=O)(=O)Nc1ccc(Oc2ccc(F)cc2F)c(-c2cn(C)c(=O)c3[nH]c(C(=O)Nc4ccc(OCCOCCOCCOCCOCCOCCOCCOCCOCCNC(=O)c5cc(NC(=O)c6nc(NC(=O)[C@H](N)CCNC(=O)c7cc(NC(=O)c8nc(NC(=O)CCNC(=O)c9cc(NC(=O)c%10nccn%10C)cn9C)cn8C)cn7C)cn6C)cn5C)cc4)cc23)c1 [Compound A-21] | A (A>90%) | – | A (A>90%) | –
4 | CC(=O)Nc1c(F)cc(C(=O)NC2CCC(O)CC2)cc1O[C@@H](C)c1cccc(OCCOCCOCCOCCOCCOCCOCCOCCOCCOCCOCCOCCOCCOCCOCCOCCNC(=O)CCNC(=O)c2nc(NC(=O)c3cc(NC(=O)CCNC(=O)c4nc(NC(=O)CCCNC(=O)c5cc(NC(=O)c6nc(NC(=O)CCNC(=O)c7cc(NC(=O)c8nccn8C)cn7C)cn6C)cn5C)cn4C)cn3C)cn2C)c1 (stereo partly shown) [Compound A-31] | B (B is 90% to 80%) | – | B (B is 90% to 80%) | –
5 | CC(=O)Nc1c(F)cc(C(=O)N[C@H]2CC[C@H](O)CC2)cc1O[C@@H](C)c1cccc(C(=O)NCCOCCOCCOCCOCCOCCOCCOCCOCCOCCOCCOCCOCCOCCOCCOCCNC(=O)CCNC(=O)c2nc(NC(=O)c3cc(NC(=O)CCNC(=O)c4nc(NC(=O)CCCNC(=O)c5cc(NC(=O)c6nc(NC(=O)CCNC(=O)c7cc(NC(=O)c8nccn8C)cn7C)cn6C)cn5C)cn4C)cn3C)cn2C)c1 [Compound A-32] | B (B is 90% to 80%) | – | B (B is 90% to 80%) | –
6 | Cc1sc2c(c1C)C(c1ccc(Cl)cc1)=N[C@@H](CC(=O)Nc1ccc(OCCOCCOCCOCCOCCOCCOCCOCCOCCNC(=O)c3cc(NC(=O)c4nc(NC(=O)[C@H](N)CCNC(=O)c5cc(NC(=O)c6nc(NC(=O)CCNC(=O)c7cc(NC(=O)c8nccn8C)cn7C)cn6C)cn5C)cn4C)cn3C)cc1)c1nnc(C)n1-2 [Compound A-35] | B (B is 90% to 80%) | – | A (A>90%) | –
7 | CCS(=O)(=O)Nc1ccc(Oc2ccc(F)cc2F)c(-c2cn(C)c(=O)c3[nH]c(C(=O)Nc4ccc(OCCOCCOCCOCCOCCOCCOCCOCCOCCOCCOCCOCCOCCOCCOCCOCCNC(=O)c5cc(NC(=O)c6nc(NC(=O)[C@H](N)CCNC(=O)c7cc(NC(=O)c8nc(NC(=O)CCNC(=O)c9cc(NC(=O)c%10nccn%10C)cn9C)cn8C)cn7C)cn6C)cn5C)cc4)cc23)c1 [Compound A-36] | A (A>90%) | – | A (A>90%) | –
8 | Cc1sc2c(c1C)C(c1ccc(Cl)cc1)=N[C@@H](CC(=O)Nc1ccc(OCCOCCOCCOCCOCCOCCOCCOCCOCCNC(=O)c3cc(NC(=O)c4nc(NC(=O)c5cc(NC(=O)[C@@H](N)CCNC(=O)c6nc(NC(=O)CCNC(=O)c7cc(NC(=O)c8nccn8C)cn7C)cn6C)cn5C)cn4C)cn3C)cc1)c1nnc(C)n1-2 [Compound A-37] | B (B is 90% to 80%) | > 1000 nM | B (B is 90% to 80%) | > 1000 nM
9 | Cc1sc2c(c1C)C(c1ccc(Cl)cc1)=N[C@@H](CC(=O)Nc1ccc(OCCOCCOCCOCCOCCOCCOCCOCCOCCOCCOCCOCCOCCOCCOCCOCCNC(=O)c3cc(NC(=O)c4nc(NC(=O)c5cc(NC(=O)[C@@H](N)CCNC(=O)c6nc(NC(=O)CCNC(=O)c7cc(NC(=O)c8nccn8C)cn7C)cn6C)cn5C)cn4C)cn3C)cc1)c1nnc(C)n1-2 [Compound A-38] | A (A>90%) | – | A (A>90%) | –
10 | CCS(=O)(=O)Nc1ccc(Oc2ccc(F)cc2F)c(-c2cn(C)c(=O)c3[nH]c(C(=O)Nc4ccc(OCCOCCOCCOCCOCCOCCOCCOCCOCCNC(=O)c5cc(NC(=O)c6nc(NC(=O)c7cc(NC(=O)[C@@H](N)CCNC(=O)c8nc(NC(=O)CCNC(=O)c9cc(NC(=O)c%10nccn%10C)cn9C)cn8C)cn7C)cn6C)cn5C)cc4)cc23)c1 [Compound A-39] | B (B is 90% to 80%) | – | B (B is 90% to 80%) | –
11 | CCS(=O)(=O)Nc1ccc(Oc2ccc(F)cc2F)c(-c2cn(C)c(=O)c3[nH]c(C(=O)Nc4ccc(OCCOCCOCCOCCOCCOCCOCCOCCOCCOCCOCCOCCOCCOCCOCCOCCNC(=O)c5cc(NC(=O)c6nc(NC(=O)c7cc(NC(=O)[C@@H](N)CCNC(=O)c8nc(NC(=O)CCNC(=O)c9cc(NC(=O)c%10nccn%10C)cn9C)cn8C)cn7C)cn6C)cn5C)cc4)cc23)c1 [Compound A-40] | A (A>90%) | – | A (A>90%) | –
12 | Cc1sc2c(c1C)C(c1ccc(Cl)cc1)=N[C@H](CC(=O)Nc1ccc(OCCOCCOCCOCCOCCOCCOCCOCCOCCOCCOCCOCCOCCOCCOCCOCCNC(=O)CCNC(=O)c3nc(NC(=O)c4cc(NC(=O)CCNC(=O)c5nc(NC(=O)CCCNC(=O)c6cc(NC(=O)c7nc(NC(=O)CCNC(=O)c8cc(NC(=O)c9nccn9C)cn8C)cn7C)cn6C)cn5C)cn4C)cn3C)cc1)c1nnc(C)n1-2 [Compound A-45] | C (C<80%) | – | C (C<80%) | –
13 | Cn1cc(NC(=O)c2nc(NC(=O)CCNC(=O)c3cc(NC(=O)c4nccn4C)cn3C)cn2C)cc1C(=O)NCCCC(=O)Nc1cn(C)c(C(=O)NCCC(=O)Nc2cc(C(=O)Nc3cn(C)c(C(=O)NCCC(=O)NCCOCCOCCOCCOCCN4C[C@H](Nc5cnn(C)c(=O)c5Br)C[C@H](c5ccccc5)C4)n3)n(C)c2)n1 [Compound A-47] | C (C<80%) | > 1000 nM | C (C<80%) | > 1000 nM
14 | Cn1cc(NC(=O)c2nc(NC(=O)CCNC(=O)c3cc(NC(=O)c4nccn4C)cn3C)cn2C)cc1C(=O)NCCCC(=O)Nc1cn(C)c(C(=O)NCCC(=O)Nc2cc(C(=O)Nc3cn(C)c(C(=O)NCCC(=O)NCCOCCOCCOCCOCCOCCOCCOCCOCCN4C[C@H](Nc5cnn(C)c(=O)c5Br)C[C@H](c5ccccc5)C4)n3)n(C)c2)n1 [Compound A-48] | A (A>90%) | – | A (A>90%) | –
15 | Cn1cc(NC(=O)c2nc(NC(=O)CCNC(=O)c3cc(NC(=O)c4nccn4C)cn3C)cn2C)cc1C(=O)NCCCC(=O)Nc1cn(C)c(C(=O)NCCC(=O)Nc2cc(C(=O)Nc3cn(C)c(C(=O)NCCC(=O)NCCOCCOCCOCCOCCOCCOCCOCCOCCOCCOCCOCCOCCOCCOCCOCCN4C[C@H](Nc5cnn(C)c(=O)c5Br)C[C@H](c5ccccc5)C4)n3)n(C)c2)n1 [Compound A-49] | A (A>90%) | – | A (A>90%) | –
16 | Cc1noc(C)c1-c1ccc2c(c1)nc(CCc1ccc(OCCOCCOCCOCCOCCNC(=O)CCNC(=O)c3nc(NC(=O)c4cc(NC(=O)CCNC(=O)c5nc(NC(=O)CCCNC(=O)c6cc(NC(=O)c7nc(NC(=O)CCNC(=O)c8cc(NC(=O)c9nccn9C)cn8C)cn7C)cn6C)cn5C)cn4C)cn3C)c(Cl)c1)n2C[C@H](C)N1CCOCC1 [Compound A-52] | B (B is 90% to 80%) | > 1000 nM | C (C<80%) | > 1000 nM

Source: patent publication US20240042046A1, “METHODS AND COMPOUNDS FOR MODULATING HUNTINGTON'S DISEASE” (Design Therapeutics, Inc., priority 2022, published 2024)
